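Values below derive from 48-hour exposures of cells grown in 96-well plates, with endpoints linearly interpolated between the two concentrations bracketing the appropriate inhibition level. GI50 = concentration required for 50% inhibition of growth.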 Active and inactive are the calls of the source. Rule as the data show it: active = GI50 up to about 1.1 µM and inactive = higher. Where a SMILES comes first, the peptide text is derived from it. [ ]: non-standard residue; d: D form. The star is where a group is joined. ξ: configuration not given here. NMeF = CN[C@@H](Cc1ccccc1)C(=O)O; NMeV = CN[C@H](C(=O)O)C(C)C; ξNMeN = CNC(CC(N)=O)C(=O)O; NMeA = CN[C@@H](C)C(=O)O; ξNMeV = CNC(C(=O)O)C(C)C; Boc = CC(C)(C)OC(=O)*
Columns and labels:
Test in all cases: NCI tumour cell line growth inhibition, 48 h
[1] = tested on: DMS-114
[2] = tested on: DMS-273
[3] = tested on: KM-20L2
[4] = tested on: LXFL 529
[5] = tested on: M19-MEL
[6] = tested on: RXF 631
[7] = tested on: XF498
[8] = tested on: HOP-18
[9] = tested on: SNB-78

COC(=O)c1ccccc1OCc1cc(=O)oc2ccc(C)cc12
GI50 [1]: 89.3 µM (inactive)
GI50 [2]: 71.3 µM (inactive)
GI50 [3]: 82.2 µM (inactive)
GI50 [4]: 85.7 µM (inactive)
GI50 [5]: > 100 µM (inactive)
GI50 [6]: > 100 µM (inactive)
GI50 [7]: 31.8 µM (inactive)

CCOC(=O)C1(C)C2=CC=C(O2)C(C)(C)C2=CC=C(O2)C(C)(C)C2=CC=C(O2)C(C)(C)C2=CC=C1O2
GI50 [2]: > 100 µM (inactive)
GI50 [8]: > 100 µM (inactive)
GI50 [3]: > 100 µM (inactive)
GI50 [4]: > 100 µM (inactive)
GI50 [5]: > 100 µM (inactive)
GI50 [6]: > 100 µM (inactive)
GI50 [9]: > 100 µM (inactive)
GI50 [7]: > 100 µM (inactive)

CCC(=O)N/N=C(\C=C\c1cccc(O)c1)c1sc(Nc2ccc(C)cc2[N+](=O)[O-])nc1C
GI50 [1]: > 100 µM (inactive)
GI50 [2]: > 100 µM (inactive)
GI50 [8]: > 100 µM (inactive)
GI50 [3]: > 100 µM (inactive)
GI50 [4]: > 100 µM (inactive)
GI50 [5]: > 100 µM (inactive)
GI50 [9]: > 100 µM (inactive)

C[C@H]1C/C=C/[C@H]2[C@@H]3O[C@]3(C)[C@@H](C)[C@H]3[C@H](Cc4ccccc4)NC(=O)[C@]32OC(=O)O/C=C/[C@@](C)(O)C1=O [CYTOCHALASIN E]
GI50 [1]: 0.0548 µM (active)
GI50 [2]: 0.091 µM (active)
GI50 [3]: 0.0248 µM (active)
GI50 [5]: 0.0759 µM (active)
GI50 [9]: 0.0189 µM (active)
GI50 [7]: 0.0183 µM (active)

COc1ccccc1/C=C1\CCC(CN(C)C)C1=O (stereo unspecified)
GI50 [1]: 2.75 µM (inactive)
GI50 [2]: 6.9 µM (inactive)
GI50 [8]: 22.9 µM (inactive)
GI50 [3]: 4.24 µM (inactive)
GI50 [5]: 2.78 µM (inactive)
GI50 [9]: 9.4 µM (inactive)
GI50 [7]: 18.3 µM (inactive)

CCOc1ccc(/N=C(/NC(=O)c2ccccc2)SC)cc1
GI50 [1]: > 100 µM (inactive)
GI50 [2]: > 100 µM (inactive)
GI50 [8]: > 100 µM (inactive)
GI50 [3]: > 100 µM (inactive)
GI50 [4]: > 100 µM (inactive)
GI50 [5]: > 100 µM (inactive)
GI50 [9]: > 100 µM (inactive)

Oc1cc(C2OCCCO2)cc(O)c1O
GI50 [1]: > 100 µM (inactive)
GI50 [2]: > 100 µM (inactive)
GI50 [8]: > 100 µM (inactive)
GI50 [3]: > 100 µM (inactive)
GI50 [4]: > 100 µM (inactive)
GI50 [5]: > 100 µM (inactive)
GI50 [6]: > 100 µM (inactive)
GI50 [9]: > 100 µM (inactive)

O=c1cnn2c(n1)sc1ccc3ccccc3c12
GI50 [1]: > 100 µM (inactive)
GI50 [2]: > 100 µM (inactive)
GI50 [8]: > 100 µM (inactive)
GI50 [3]: > 100 µM (inactive)
GI50 [4]: > 100 µM (inactive)
GI50 [5]: > 100 µM (inactive)
GI50 [9]: > 100 µM (inactive)
GI50 [7]: > 100 µM (inactive)

Oc1cc(-c2ccccc2)c2ccccc2n1
GI50 [1]: 12.7 µM (inactive)
GI50 [2]: 60.5 µM (inactive)
GI50 [8]: 23.6 µM (inactive)
GI50 [4]: 34.2 µM (inactive)
GI50 [5]: 82.6 µM (inactive)

CCOC(=O)NN(C(=O)OCC)C(C(=O)c1ccc(Cl)cc1)=C1NCCN1
GI50 [1]: > 100 µM (inactive)
GI50 [2]: > 100 µM (inactive)
GI50 [8]: > 100 µM (inactive)
GI50 [3]: > 100 µM (inactive)
GI50 [4]: > 100 µM (inactive)
GI50 [5]: > 100 µM (inactive)
GI50 [9]: > 100 µM (inactive)
GI50 [7]: 78.9 µM (inactive)

COc1cc(/C=C\c2ccccn2)cc(OC)c1OC
GI50 [1]: 45.6 µM (inactive)
GI50 [2]: 75 µM (inactive)
GI50 [8]: > 100 µM (inactive)
GI50 [3]: 71.4 µM (inactive)
GI50 [4]: 70.5 µM (inactive)
GI50 [5]: 67.3 µM (inactive)
GI50 [6]: > 100 µM (inactive)
GI50 [9]: > 100 µM (inactive)
GI50 [7]: 16.2 µM (inactive)

O=C(NC1C=Nc2ccccc2NC1=O)c1ccccc1Cl (stereo unspecified)
GI50 [1]: 16.1 µM (inactive)
GI50 [2]: 26.8 µM (inactive)
GI50 [8]: 48 µM (inactive)
GI50 [3]: 55.6 µM (inactive)
GI50 [4]: 28.6 µM (inactive)
GI50 [5]: 57 µM (inactive)
GI50 [6]: 22 µM (inactive)
GI50 [9]: 93.1 µM (inactive)
GI50 [7]: 22.2 µM (inactive)

COc1cccc2c1C(=O)c1c(O)c3c(c(O)c1C2=O)C[C@@](O)(C(C)=O)C[C@@H]3OC1CC(N(Cc2ccccc2)Cc2ccccc2)C(O)C(C)O1 (stereo partly specified)
GI50 [1]: 39.8 µM (inactive)
GI50 [2]: 3.78 µM (inactive)
GI50 [8]: > 45.5 µM (inactive)
GI50 [3]: 24.9 µM (inactive)
GI50 [4]: 0.69 µM (active)
GI50 [5]: 23.2 µM (inactive)
GI50 [9]: 2.56 µM (inactive)

O=C1/C(=C/c2ccc(O)c(O)c2)CCC/C1=C\c1ccc(O)c(O)c1
GI50 [2]: 2.06 µM (inactive)
GI50 [8]: 2.81 µM (inactive)
GI50 [3]: 11.6 µM (inactive)
GI50 [5]: 3.43 µM (inactive)
GI50 [9]: 2.11 µM (inactive)
GI50 [7]: 3.13 µM (inactive)

COC(=O)[C@H](C)N(C)C(=O)C(CC(N)=O)N(C)C(=O)[C@H](Cc1ccccc1)N(C)C(=O)[C@@H]1CCCN1C(=O)[C@H](C(C)C)N(C)C(=O)C(C(C)C)N(C)C(=O)[C@@H](NC(=O)OC(C)(C)C)C(C)C (stereo partly specified) (Boc-V[ξNMeV][NMeV]P[NMeF][ξNMeN][NMeA]-OMe)
GI50 [1]: 16.8 µM (inactive)
GI50 [2]: 55.5 µM (inactive)
GI50 [3]: 39.2 µM (inactive)
GI50 [4]: 24.2 µM (inactive)
GI50 [5]: 18.4 µM (inactive)
GI50 [9]: 50.6 µM (inactive)
GI50 [7]: 26.7 µM (inactive)

O=C(O)c1ccc(S(=O)(=O)c2ccccc2)c([N+](=O)[O-])c1
GI50 [1]: > 100 µM (inactive)
GI50 [2]: 63.8 µM (inactive)
GI50 [8]: > 100 µM (inactive)
GI50 [3]: > 100 µM (inactive)
GI50 [4]: > 100 µM (inactive)
GI50 [5]: > 100 µM (inactive)
GI50 [9]: > 100 µM (inactive)

O=C(CC(=O)Nc1ccc(Cl)cc1)NNCC(=O)Nc1nc(-c2ccccc2)cs1
GI50 [1]: > 100 µM (inactive)
GI50 [2]: > 100 µM (inactive)
GI50 [8]: > 100 µM (inactive)
GI50 [3]: 59.6 µM (inactive)
GI50 [4]: 75.7 µM (inactive)
GI50 [5]: > 100 µM (inactive)
GI50 [9]: > 100 µM (inactive)
GI50 [7]: > 100 µM (inactive)

C[Si](C)(C)C(CCCCSc1ccccc1)(Sc1ccccc1)Sc1ccccc1
GI50 [1]: > 100 µM (inactive)
GI50 [2]: > 100 µM (inactive)
GI50 [3]: > 10 µM (inactive)
GI50 [4]: 78.2 µM (inactive)
GI50 [5]: > 100 µM (inactive)
GI50 [6]: > 100 µM (inactive)
GI50 [9]: > 100 µM (inactive)
GI50 [7]: > 100 µM (inactive)

Cc1ccc(C)c2sc3cc(=O)ccc-3nc12
GI50 [1]: 30.5 µM (inactive)
GI50 [2]: 39.2 µM (inactive)
GI50 [8]: > 100 µM (inactive)
GI50 [3]: 73.3 µM (inactive)
GI50 [4]: 37.7 µM (inactive)
GI50 [5]: 17.3 µM (inactive)
GI50 [6]: 92.9 µM (inactive)
GI50 [9]: > 100 µM (inactive)

CCOC(=O)NC(=O)c1cn(-c2ccc(CCOC(=O)NCCCCCCNC(=O)OCCc3ccc(-n4c(=O)[nH]cc(C(=O)NC(=O)OCC)c4=O)cc3)cc2)c(=O)[nH]c1=O
GI50 [1]: > 75.2 µM (inactive)
GI50 [2]: > 79.8 µM (inactive)
GI50 [8]: > 100 µM (inactive)
GI50 [3]: > 100 µM (inactive)
GI50 [4]: 22.2 µM (inactive)
GI50 [5]: 47 µM (inactive)
GI50 [9]: 58.2 µM (inactive)

CC(=O)NC(CC(C)C)C(=O)NC(Cc1ccccc1)C(=S)N1CCCC1 (stereo unspecified)
GI50 [1]: > 100 µM (inactive)
GI50 [2]: > 100 µM (inactive)
GI50 [3]: > 100 µM (inactive)
GI50 [4]: > 100 µM (inactive)
GI50 [5]: > 100 µM (inactive)
GI50 [6]: > 100 µM (inactive)
GI50 [7]: > 100 µM (inactive)

CCOC(=O)C1=C(Nc2ccc(Br)cc2)OC/C1=N\NC(=O)c1ccccc1O
GI50 [2]: 4.69 µM (inactive)
GI50 [8]: 70.5 µM (inactive)
GI50 [3]: > 60 µM (inactive)
GI50 [4]: 14.5 µM (inactive)
GI50 [5]: 35 µM (inactive)
GI50 [9]: 7.93 µM (inactive)

C#CCN(C(=O)C(F)(F)F)c1ccc(C(=O)c2ccc(N(CC#C)C(=O)C(F)(F)F)cc2)cc1
GI50 [1]: 20.7 µM (inactive)
GI50 [2]: 24.1 µM (inactive)
GI50 [3]: > 100 µM (inactive)
GI50 [4]: 27.7 µM (inactive)
GI50 [5]: 35.5 µM (inactive)
GI50 [9]: 52.4 µM (inactive)

CCCCCCCCCCCCC(CCCCCCCCCCCC)OP(=O)(O)O
GI50 [1]: > 100 µM (inactive)
GI50 [2]: > 100 µM (inactive)
GI50 [8]: > 100 µM (inactive)
GI50 [3]: > 100 µM (inactive)
GI50 [4]: > 100 µM (inactive)
GI50 [5]: > 100 µM (inactive)
GI50 [6]: 94.4 µM (inactive)
GI50 [9]: > 100 µM (inactive)
GI50 [7]: > 100 µM (inactive)

COC(=O)C1C=CCC2CCCCC21N1CCCC1 (stereo unspecified)
GI50 [1]: 36.1 µM (inactive)
GI50 [2]: > 100 µM (inactive)
GI50 [8]: > 100 µM (inactive)
GI50 [3]: 83.2 µM (inactive)
GI50 [4]: 81.5 µM (inactive)
GI50 [5]: 59.3 µM (inactive)
GI50 [6]: > 100 µM (inactive)
GI50 [9]: > 100 µM (inactive)

O=[N+]([O-])c1ccc(/C=N/C2CCCCC2)cc1
GI50 [1]: > 100 µM (inactive)
GI50 [2]: > 100 µM (inactive)
GI50 [8]: > 100 µM (inactive)
GI50 [3]: > 100 µM (inactive)
GI50 [5]: > 100 µM (inactive)
GI50 [6]: > 100 µM (inactive)
GI50 [9]: > 100 µM (inactive)
GI50 [7]: > 100 µM (inactive)

Source: ChEMBL document CHEMBL1201862, “PubChem BioAssay data set” (2004)
